Results reported in PubChem BioAssay AID437 (SGCStoCompounds, 2006).

The compounds below were run against Inositol-trisphosphate 3-kinase C (Homo sapiens) (UniProt Q96DU7) (assay: ITPKC binders by thermal stabilisation, biophysical, DSF, SYPRO orange, purified human protein (AID 437)). Settings: at 20 µM, protein 5.9 µM, buffer 300 mM NaCl, 50 mM Hepes, 10% glycerol, 2 mM TCEP pH 7.5, active compounds read high;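 active = compounds whose melting temperature shift versus control, a sign of protein stabilisation, is above 3 °C; inactive = the rest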.
Chain of Inositol-trisphosphate 3-kinase C (Homo sapiens) (Q96DU7 whole entry, looked up): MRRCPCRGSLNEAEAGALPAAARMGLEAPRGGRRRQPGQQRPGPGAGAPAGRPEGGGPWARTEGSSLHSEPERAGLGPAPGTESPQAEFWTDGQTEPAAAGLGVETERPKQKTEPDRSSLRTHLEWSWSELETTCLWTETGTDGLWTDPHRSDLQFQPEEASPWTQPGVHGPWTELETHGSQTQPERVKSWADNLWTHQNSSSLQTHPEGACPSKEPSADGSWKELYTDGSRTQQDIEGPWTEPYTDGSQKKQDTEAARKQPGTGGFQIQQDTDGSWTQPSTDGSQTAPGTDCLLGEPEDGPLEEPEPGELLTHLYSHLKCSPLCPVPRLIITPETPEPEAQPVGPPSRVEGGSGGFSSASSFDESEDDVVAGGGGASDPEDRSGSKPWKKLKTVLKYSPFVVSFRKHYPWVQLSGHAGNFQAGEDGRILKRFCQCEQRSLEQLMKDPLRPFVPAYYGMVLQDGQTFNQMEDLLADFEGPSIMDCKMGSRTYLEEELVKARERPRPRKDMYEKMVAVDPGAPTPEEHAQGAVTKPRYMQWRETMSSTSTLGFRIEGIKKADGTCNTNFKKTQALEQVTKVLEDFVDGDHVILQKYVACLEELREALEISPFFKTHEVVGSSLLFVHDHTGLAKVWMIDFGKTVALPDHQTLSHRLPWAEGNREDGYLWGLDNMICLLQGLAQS

Tm shift, active:
O=C1c2c(O)cc(O)cc2OC(c2ccc(O)c(O)c2)C1O (configuration not stated) 13.3 Celsius
NC1=N/C(=C2/CCNC(=O)c3[nH]c(Br)cc32)C(=O)N1 3 Celsius
NC(O)(O)c1ccc(N=Nc2c(O)[nH]c3ccc(Cl)cc23)cc1 3.7 Celsius
Nc1ncnc2c1C(I)CN2[C@@H]1O[C@H](CO)C(O)C1O (some centres not stated) 4.7 Celsius
CN(C)S(O)(O)c1ccc2c(c1)/C(=C/c1cc3c([nH]1)CCCC3)C(=O)N2 3.2 Celsius
O=c1c(-c2ccc(O)cc2)coc2cc(O)cc(O)c12 3.3 Celsius
C=S(C)c1ccc(CSc2nc(-c3ccc(F)cc3)c(-c3ccncc3)[nH]2)cc1 (configuration not stated) 5.6 Celsius
Brc1c(Br)c(Br)c2n[nH]nc2c1Br 4.6 Celsius
CCOc1cc(/C=C(\C#N)CON)cc(CSc2ccccc2)c1O 4.2 Celsius
COC1=CC(/C=C/C(=O)CC(=O)/C=C/c2ccc(O)c(OC)c2)=CCC1O (configuration not stated) 6.6 Celsius
NC1=CC2N=CN=C(Nc3cccc(Br)c3)C2C=C1N (configuration not stated) 5.2 Celsius
O=C1Nc2ccc(I)cc2/C1=C/c1cc(Br)c(O)c(Br)c1 10.4 Celsius
O=c1c2ccccc2[nH]c(=S)n1CCN1CCC(=C(c2ccc(F)cc2)c2ccc(F)cc2)CC1 6.4 Celsius
CNC(=O)c1cc(Oc2ccc(NC(=O)Nc3ccc(C)c(C(F)(F)F)c3)cc2)ccn1 5.7 Celsius
CC(C)(C)c1nc2c3cc[nH]c(=O)c3c3cc(F)ccc3c2[nH]1 3.3 Celsius
O=C1Cc2c([nH]c3ccc(Br)cc23)-c2ccccc2N1 3.1 Celsius
Oc1ccc(-c2nc(-c3ccc(F)cc3)c(-c3ccncc3)[nH]2)cc1 4.4 Celsius
